Measured values: patent US9738677B2, “Amphotericin B derivative with reduced toxicity” (priority 2014, dated 2017)

What was measured:
[1] = system: yeast; settings: previously found; cited from earlier work
[2] = previously found; cited from earlier work
[3] = system: renal cells; assay type: cell-based, human
Protocol: Cells were imaged using an AMG (Bothell, Wash.) EVOS fl Microscope. Images were taken using transmitted light at 10× objective.
(18) Due to the limited solubility of AmB and its derivatives in the renal cell media, 80 μM is the highest concentration we were able to study. At higher concentrations, the aggregate blocks the light path of the plate reader, giving false high absorbance readings.

[4] = previously found; cited from earlier work; remark: listed apart in the source
[5] = system: healthy mice; assay: Acute toxicity, single intravenous administration, lethality; assay type: in vivo, mouse; settings: healthy mice, single intravenous 4 mg/kg
Protocol: FIG. 8 is a graph depicting lethality in healthy mice resulting from single intravenous administrations in the doses indicated of AmB or C2′epiAmB.
In a separate experiment, acute toxicity was determined by single intravenous administration of AmB or C2′epiAmB to healthy mice, followed by monitoring for lethality.

[6] = system: primary human renal proximal tubule epithelial cells; assay: WST-8 cell proliferation assay (MTC); assay type: cell-based
Protocol: WST-8 Cell Proliferation Assays
Primary human renal proximal tubule epithelial cells (RPTECs) were purchased from ATCC (Manassas, Va.) and immediately cultured upon receipt. Complete growth media was prepared using renal epithelial cell basal medium (ATCC, PCS-400-030), renal epithelial cell growth kit (ATCC, PCS-400-040), and penicillin-streptomycin (10 units/mL and 10 μg/mL). Complete media was stored at 4° C. in the dark and used within 28 days. Primary RPTECs were grown in CO2 incubator at 37° C. with an atmosphere of 95% air/5% CO2.
WST-8 cell proliferation assay kit (Ser. No. 10/010,199) was purchased from Cayman Chemical Company (Ann Arbor, Mich.) and stored at −20° C. and used within 6 months of receipt. WST-8 reagent and electron mediator solution were thawed and mixed to prepare the WST-8 reagent solution. The solution was stored at −20° C. and used within one week.
A suspension of primary RPTECs in complete growth media was brought to a concentration of 1×10^5 cells/mL. A 96-well plate was seeded with 99 μL of the cell suspension and incubated at 37° C. with an atmosphere of 95% air/5% CO2 for 3 hours. Positive and negative controls were prepared by seeding with 100 μL of the cell suspension or 100 μL of the complete media. Compounds were prepared as 5 mM (AmB), 20 mM (C2′deOAmB), and 50 mM (C2′epiAmB) stock solutions in DMSO and serially diluted to the following concentrations with DMSO: 50000, 40000, 30000, 20000, 10000, 8000, 6000, 4000, 3000, 2000, 1500, 1000, 800, 600, 400, 300, 200, 100, 50, 25, 10, 5, 2.5, 1, 0.5, 0.25, and 0.1 μM. 1 μL aliquots of each solution were added to the 96-well plate in triplicate, with each column representing a different concentration of the test compound. The 96-well plate was incubated at 37° C. with an atmosphere of 95% air/5% CO2 for 24 hours. […] Following incubation, the 96-well plate was mixed in a shaking incubator at 200 rpm for 1 minute and absorbances were read at 450 nm using a Biotek H1 Synergy Hybrid Reader (Wanooski, Vt.). […]

[7] = system: human red blood cells; assay: Minimum hemolysis concentration (MHC) assay; assay type: cell-based; settings: concentration causing 90% hemolysis of human red blood cells, 2 hours, 37° C.
Protocol: The protocol for the hemolysis assay was adapted from the report of Paquet and coworkers. […] Whole human blood (sodium heparin) was purchased from Bioreclamation LLC (Westbury, N.Y.) and stored at 4° C. and used within two days of receipt. To a 2.0 mL Eppendorf tube, 1 mL of whole human blood was added and centrifuged at 10,000 g for 2 minutes. The supernatant was removed and the erythrocyte pellet was washed with 1 mL of sterile saline and centrifuged at 10,000 g for 2 minutes. The saline wash was repeated for a total of three washes. The erythrocyte pellet was suspended in 1 mL of RBC buffer (10 mM NaH2PO4, 150 mM NaCl, 1 mM MgCl2, pH 7.4) to form the erythrocyte stock suspension.
Positive and negative controls were prepared by adding 1 μL of DMSO to MilliQ water or RBC buffer, respectively to 0.2 mL PCR tube. To each PCR tube, 0.63 μL of the erythrocyte stock suspension was added and mixed by inversion. The samples were incubated at 37° C. for 2 hours. The samples were mixed by inversion and centrifuged at 10,000 g for 2 minutes. 15 μL of the supernatant from each sample was added to a 384-well place. Absorbances were read at 540 nm using a Biotek H1 Synergy Hybrid Reader (Wanooski, Vt.). Experiments were performed in triplicate and the reported MHC represents an average of three experiments.
Percent hemolysis was determined according to the following equation:
[formula] […]

[8] = ITC sterol binding, POPC LUVs containing 10% ergosterol; settings: net exotherm vs sterol-free LUVs
Protocol: (§1) Isothermal Titration calorimetry (ITC)
(§2) In an optimized isothermal titration calorimetry (ITC)-based assay, an aqueous solution of AmB was titrated with a suspension of large unilamellar vesicles (LUVs) comprised of only 1-palmitoyl-2-oleoyl-sn-glycero-3-phosphocholine (POPC), and the net exotherm was recorded. The titration was repeated using POPC LUVs containing 10% ergosterol. […] The titration was repeated using C2′epiAmB. […] The ITC assay was also conducted with cholesterol in place of ergosterol.
(§3) Experiments were performed using a NanoITC isothermal titration calorimeter (TA Instruments, Wilmington, Del.). Solutions of the compounds to be tested were prepared by diluting a 60.0 mM stock solution of the compound in DMSO to 600 μM with K buffer (5.0 mM HEPES/KHEPES, pH=7.4). The final DMSO concentration in the solution was 1% v/v. Large unilamellar vesicles comprised of only 1-palmitoyl-2-oleoyl-sn-glycero-3-phosphocholine (POPC LUVs) were prepared and phosphorus and ergosterol content was quantified as described below. The LUV solutions were diluted with buffer and DMSO to give a final phospholipid concentration of 12.0 mM in a 1% DMSO/K buffer solution. Immediately prior to use, all solutions were incubated at 37° C. for 30 minutes and degassed under vacuum at 37° C. for 10 minutes. The reference cell of the instrument (volume=0.190 mL) was filled with a solution of 1% v/v DMSO/K buffer.
(§4) Palmitoyl oleoyl phosphatidylcholine (POPC) was obtained as a 20 mg/mL solution in CHCl3 from Avanti Polar Lipids (Alabaster, Ala.) and was stored at −20° C. under an atmosphere of dry argon and used within 1 month. […]
Ergosterol content was determined spectrophotometrically. […] The solutions were then analyzed by UV/Vis spectroscopy and the concentration of ergosterol in solution was determined by the extinction coefficient of 10400 L mol^−1 cm^−1 at the UVmax of 282 nm and was compared to the concentration of phosphorus to determine the percent sterol content. The extinction coefficient was determined independently in the above ternary solvent system. […]

[9] = ITC sterol binding, POPC LUVs containing 10% cholesterol; settings: within the limits of the binding assay
Protocol: as §1, §2, §3
as §4, with “month. A 4 mg/mL solution of ergosterol in CHCl3 was prepared monthly and stored at 4° C. under an atmosphere of dry argon.” for “month.”
NanoAnalyze software (TA Instruments) was used for baseline determination and integration of the injection heats, and Microsoft Excel was used for subtraction of dilution heats and the calculation of overall heat evolved. […] By this method, the overall heat evolved during the experiment was calculated using the following formula: […]

[10] = Chol-containing POPC liposomes, 1 μM; cited from earlier work
[11] = system: yeast; settings: reported by Carreira and coworkers; cited from earlier work

C[C@@H]1[C@H](O)[C@@H](C)C=CC=CC=CC=CC=CC=CC=C[C@H](O)C[C@@H]2O[C@](O)(C[C@@H](O)C[C@@H](O)[C@H](O)CC[C@@H](O)C[C@@H](O)CC(=O)O[C@H]1C)C[C@H](O)[C@H]2C(=O)O [AmdeB, amphoteronolide B]
Toxicity to yeast (previous work) [1]: non-toxic to yeast | Capacity to bind cholesterol (previous work) [2]: eliminates its capacity to bind both ergosterol and cholesterol | Visual evidence of toxicity in microscope images of renal cells [3]: no visual evidence of toxicity | Capacity to bind ergosterol (previous work) [4]: eliminates its capacity to bind both ergosterol and cholesterol

C[C@@H]1[C@H](O)[C@@H](C)/C=C/C=C/C=C/C=C/C=C/C=C/C=C/[C@H](O[C@@H]2O[C@H](C)[C@@H](O)[C@H](N)[C@@H]2O)C[C@@H]2O[C@](O)(C[C@@H](O)C[C@@H](O)[C@H](O)CC[C@@H](O)C[C@@H](O)CC(=O)O[C@H]1C)C[C@H](O)[C@H]2C(=O)O [AmB, amphotericin B]
Lethality [5]: died within seconds | MTC (minimum toxic concentration) ([6]; concentration causing 90% loss of cell viability, primary human RPTECs, 24 hours): 2.4 µM | MHC (minimum hemolytic concentration) [7]: 8.5 µM | Binding to ergosterol (in words) [8]: significant increase in net exotherm

C[C@@H]1[C@H](O)[C@@H](C)/C=C/C=C/C=C/C=C/C=C/C=C/C=C/[C@H](O[C@H]2C[C@@H](N)[C@H](O)[C@@H](C)O2)C[C@@H]2O[C@](O)(C[C@@H](O)C[C@@H](O)[C@H](O)CC[C@@H](O)C[C@@H](O)CC(=O)O[C@H]1C)C[C@H](O)[C@H]2C(=O)O [C2′deOAmB]
Binding to cholesterol (in words) [9]: do not bind cholesterol | Toxicity to primary human renal proximal tubule epithelial cells (in words) ([6]; up to limits of solubility): no evidence of toxicity up to their limits of solubility | Visual evidence of toxicity in microscope images of renal cells [3]: no visual evidence of toxicity

COC(=O)[C@H]1[C@@H]2C[C@@H](O[C@@H]3O[C@H](C)[C@@H](O)[C@H](N)[C@H]3O)/C=C/C=C/C=C/C=C/C=C/C=C/C=C/[C@H](C)[C@@H](O)[C@@H](C)[C@H](C)OC(=O)C[C@H](O)C[C@H](O)CC[C@@H](O)[C@H](O)C[C@H](O)C[C@](O)(C[C@@H]1O)O2 [C2′epiAmE, C2′epiAmB methyl ester]
Efflux of potassium ions [10]: caused efflux of potassium ions | Potency in yeast MIC assays compared to AmB [11]: equipotent to AmB
